The record followed here is patent US5202331A, “Therapeutic agent for dysuria comprising alpha-phenyl-alpha-pyridylalkanoic acid derivatives” (Fujisawa Pharmaceutical Co., Ltd., priority 1990, dated 1993).

Data set [1] relates to isolated guinea pig bladder detrusor muscle. Put plainly: Anticholinergic effect in the isolated guinea pig bladder (carbamylcholine-induced contraction). Further details: species or system male guinea pigs. The settings on record: Cavia porcellus, contractions induced with 10 μM carbamylcholine, Krebs solution. Here is the method: Male guinea pigs weighing 400-700 g were fainted and killed by a blow on the occipital region. A bladder detrusor muscle specimen (15-20 mm long × 5 mm thick) was prepared by longitudinal section and suspended in a Magnus bath containing Krebs solution which was aerated with 95% O2 -5% CO2. Isotonic contractions were recorded through a tension transducer. The buffer solution was changed five times at 15-minute intervals. The equilibration time was […]. Contractions were induced with 10 μM carbamylcholine, and after the contractions became steady, the test compound was added to the Magnus bath and its anticholinergic effect was investigated.

The next data set in a line: Acute toxicity test. Conditions: rat, in vivo, 14 days observation, probit method. More on the design: species or system rats (Crj:CD(SD) strain). Here is the method:
Five rats (Crj:CD(SD) strain) of either sex were used per group. Solutions of the test compound were prepared as shown below and administered to rats intravenously or subcutaneously. The rats were then observed for 14 days. The LD50 values were calculated by the probit method. (Preparation of test solutions)
The test compound was dissolved in hydrochloric acid and the solution was adjusted to pH 6-7 with sodium hydrogen carbonate and diluted with physiological saline to the required concentrations.

Data set [2] has as its system urinary bladder contraction (hyperactive bladder, detrusor hyperreflexia). Put plainly: Inhibition of urinary bladder contraction in the pressure-loaded hyperactive bladder model in rats. Format: in vivo. Conditions: Rattus norvegicus, intravenous, urethane-anesthetized male S.D. rats, hydrostatic pressure about 10 mmHg. Here is the method: Male S.D. rats weighing 240-450 g were anesthetized with urethane (1.0 g/kg) s.c.. The urinary bladder was then exposed through a midline incision in the abdomen and the intravesical pressure was recorded. Thus, a balloon attached to one end of a stainless steel tube (1.2 mm in outer diameter, 5 cm in length) was inserted into the bladder through a small incision made in the bladder dome, while the other end of the tube was connected to a pressure transducer. The ureter was ligated and cut and a polyethylene cannula was inserted from the proximal cut end to drain off the urine.
Hyperactive bladder (detrusor hyperreflexia) was induced by water filling of the bladder. A hydrostatic pressure of about 10 mmHg was applied to the balloon in the bladder.
When the contractile response of the bladder to water pressure loading became steady, the test compound was administered intravenously.

Data set [3] concerns voiding reflex bladder contraction. The experiment in a line: Effect on voiding reflex bladder contraction in rats with the ureter ligated. Format: in vivo. Conditions: Rattus norvegicus, iv, voiding reflex rhythmic bladder contraction, into the jugular vein, urethane-anesthetized male S.D rats. The text has this:
A midline incision was made in the abdomen of male S.D rats (body weight 250-350 g) under urethane (1.0 g/kg i.p.) anesthesia. A small incision was made in the bladder dome and one end of a polyethylene tube was inserted and, then, ligated. To the other end of the polyethylene tube was attached a three-way cock. An infusion pump was connected to one of the joints and a transducer was connected to another joint for measurement of the intravesical pressure. Physiological saline was then infused continuously into the bladder. After confirmation of steady voiding reflexes, the ureter was ligated immediately before the next voiding and the infusion of physiological saline was stopped. After the resulting rhythmic contractions became stable, the test compound was administered into the jugular vein to evaluate its effect.

Structures are written as SMILES. Converted amounts (≈) assume the structure as drawn.

In data set [1], `C[C@H](C[C@@](C(N)=O)(c1ccccc1)c1ccccn1)N(C)C` (relative stereo) [test compound, (±)-(2R*,4R*)-4-Dimethylamino-2-phenyl-2-(2-pyridyl)-valeramide] came in with a 50% inhibitory concentration (IC50) of 0.6 µg/mL (≈ 2.02 µM). The LD50 at 336 h in “Acute toxicity test” (iv, Female) was determined as 42.3 mg/kg; in “Acute toxicity test” (iv, Male) it was 47.2 mg/kg; in “Acute toxicity test” (sc, Female), 915 mg/kg; in the data set “Acute toxicity test” (sc, Male), 922 mg/kg. In addition, in data set [2], the ED30 came to 0.09 mg/kg. Further, it took a dose of 0.56 mg/kg to reach the 50% effect level in data set [3] (ED50).

As a reminder, the IC50 is the concentration that inhibits the measured activity by half. The low end stands for inhibition by little substance, the high end for a need for much substance. Usually LD50 stands for the dose at which mortality reaches 50%. A lower LD50 goes with a more toxic substance. By ED50 is commonly meant the midpoint of the dose-response relation.
